Reference: patent publication US20110015080A1, “Solution-based methods for RNA expression profiling” (MASSACHUSETTS INSTITUTE OF TECHNOLOGY, priority 2005, published 2011)
Where “and” joins values, the source holds several entries; their conditions need not be identical. Equal entries are not always repeated.

Test system: HL60 (human promyelocytic leukemia) cells
Test: LMA-FlexMAP bead-based gene expression signature analysis of total RNA from HL60 cells treated with tretinoin or DMSO (ninety transcripts); as to FlexMap NM 003332 LUA#43: test concentration or dose not given here
Conditions: replicate columns
[1] = Experiment 2, HL60 cells, Tretinoin-treated

With `CC1=C(/C=C/C(C)=C/C=C/C(C)=C/C(=O)O)C(C)(C)CCC1` [tretinoin, all-trans-retinoic acid] the “FlexMap NM_003132 LUA#68” value (Experiment 2, Tretinoin) was 635 and 618 and 721 and 690.5 and 680 and 633 and 648 and 716, the “FlexMap NM_003172 LUA#19” value (Experiment 2, Tretinoin) was 333 (2×) and 312.5 and 370 and 365 and 330 and 352 and 380 and the “FlexMap NM_003332 LUA#43” value (Experiment 2, Tretinoin) was 2733 and 2691.5 and 2589.5 and 2832 and 2821 and 2704 and 2692 and 2772. The “FlexMap NM_003581 LUA#62” value (Experiment 2, Tretinoin) was 55 (2×) and 54 and 114 and 78 and 85 and 59.5 and 53, the “FlexMap NM_003644 LUA#17” value (Experiment 2, Tretinoin) was 274 (2×) and 259 and 319 and 269 and 192 and 231 and 300 and the “FlexMap NM_003752 LUA#82” value (Experiment 2, Tretinoin) was 139 and 142 and 168 and 149.5 and 150 and 153 and 162 and 164. For the same molecule, the “FlexMap NM_003879 LUA#24” value (Experiment 2, Tretinoin) was 95 and 96.5 and 93 and 91.5 and 86 and 84 and 82 and 97, the “FlexMap NM_004079 LUA#21” value (Experiment 2, Tretinoin) was 150 and 147 and 144 and 133 and 133.5 and 142 and 143 and 152 and the “FlexMap NM_004095 LUA#59” value (Experiment 2, Tretinoin) was 293 (2×) and 227 and 287 and 286.5 and 270 and 294 and 331. For the same molecule, the “FlexMap NM_004106 LUA#44” value (Experiment 2, Tretinoin) was 1697 and 1748 and 1762 and 1756 and 1799 and 1678 and 1587.5 and 1827, the “FlexMap NM_004134 LUA#76” value (Experiment 2, Tretinoin) was 406 and 372 and 423.5 and 417 and 415 (2×) and 383 and 426 and the “FlexMap NM_004152 LUA#31” value (Experiment 2, Tretinoin) was 2347 and 1882 and 2313 and 2471.5 and 2477.5 and 2269 and 2335.5 and 2470. For the same molecule, the “FlexMap NM_004526 LUA#88” value (Experiment 2, Tretinoin) was 256 and 233 and 244 and 270 and 260 and 240.5 and 243 and 277, the “FlexMap NM_004602 LUA#32” value (Experiment 2, Tretinoin) was 303 and 274 and 320 and 337 and 334 and 363 and 355.5 and 296 and the “FlexMap NM_004723 LUA#20” value (Experiment 2, Tretinoin) was 501 and 420 and 472.5 and 498 and 506 and 470 and 487.5 and 538. The “FlexMap NM_004741 LUA#89” value (Experiment 2, Tretinoin) was 402.5 and 370.5 and 329 and 324 and 317 and 325 and 328, the “FlexMap NM_004759 LUA#37” value (Experiment 2, Tretinoin) was 206.5 and 235 and 284 and 179 and 207.5 and 192 and 195 and 201 and the “FlexMap NM_005008 LUA#77” value (Experiment 2, Tretinoin) was 452.5 (2×) and 393 and 501 and 482 and 432 and 439.5 and 502.5. The “FlexMap NM_005375 LUA#86” value (Experiment 2, Tretinoin) was 565 and 642 and 552 and 568 and 593 and 585 and 589 and 587, the “FlexMap NM_005566 LUA#85” value (Experiment 2, Tretinoin) was 744 and 745 and 851 and 821 and 830 and 748 and 752 and 776.5 and the “FlexMap NM_005914 LUA#60” value (Experiment 2, Tretinoin) was 1161.5 and 1104 and 871 and 1091 and 1131 and 1081.5 and 1125 and 1172.5. For the same molecule, the “FlexMap NM_005915 LUA#72” value (Experiment 2, Tretinoin) was 47 (4×) and 43 and 44 and 49 and 54, the “FlexMap NM_005952 LUA#66” value (Experiment 2, Tretinoin) was 243 and 261.5 and 265 and 274 and 260 and 263 and 224 and 268 and the “FlexMap NM_005980 LUA#73” value (Experiment 2, Tretinoin) was 202 and 190 and 197 and 212 and 204 and 187 and 188 and 209.5. The “FlexMap NM_006019 LUA#35” value (Experiment 2, Tretinoin) was 907 and 1033 and 1059 and 938.5 and 911.5 and 862 and 871 and 956, the “FlexMap NM_006138 LUA#56” value (Experiment 2, Tretinoin) was 124 and 117 and 115.5 and 111 and 127 and 118 and 119.5 and 120 and the “FlexMap NM_006432 LUA#27” value (Experiment 2, Tretinoin) was 1693 and 1842 and 1767 and 1718 and 1798 and 1725 and 1678 and 1814. The “FlexMap NM_006452 LUA#71” value (Experiment 2, Tretinoin) was 86 (2×) and 83.5 and 93 and 90 (2×) and 88 and 96, the “FlexMap NM_006985 LUA#58” value (Experiment 2, Tretinoin) was 56 and 50 (2×) and 55 and 52 and 54 and 60 and 63 and the “FlexMap NM_007282 LUA#16” value (Experiment 2, Tretinoin) was 58 and 53 and 61 (2×) and 69 and 64 and 59 and 62. The “FlexMap NM_014333 LUA#26” value (Experiment 2, Tretinoin) was 720 (2×) and 704 and 706 and 712 and 662 and 633.5 and 726.5, the “FlexMap NM_014366 LUA#61” value (Experiment 2, Tretinoin) was 298.5 and 321 and 304.5 and 297 and 291 and 286.5 and 300 and 310.5 and the “FlexMap NM_014573 LUA#70” value (Experiment 2, Tretinoin) was 178 and 154 and 187 and 179 and 161.5 and 172 and 157.5 and 198. The “FlexMap NM_015201 LUA#57” value (Experiment 2, Tretinoin) was 241 and 245.5 and 266 and 252 and 243 and 230 and 244 and 268.5, the “FlexMap NM_018115 LUA#63” value (Experiment 2, Tretinoin) was 1238 and 1270 and 1440 and 1028 and 1210 and 935.5 and 1175 and 1004 and the “FlexMap NM_018164 LUA#69” value (Experiment 2, Tretinoin) was 198 and 200 and 205.5 and 182 (2×) and 188.5 and 186 and 211. The “FlexMap NM_018256 LUA#83” value (Experiment 2, Tretinoin) was 568 and 635.5 and 455 and 571 and 556 and 643 and 655 and 483.5, the “FlexMap NM_018890 LUA#33” value (Experiment 2, Tretinoin) was 934 and 873 and 1071 and 983 and 992 and 923.5 and 879 and 988 and the “FlexMap NM_019058 LUA#75” value (Experiment 2, Tretinoin) was 177.5 and 194 (2×) and 192 and 181.5 and 179 and 176 and 171. For the same molecule, the “FlexMap NM_020117 LUA#78” value (Experiment 2, Tretinoin) was 697 and 734 (2×) and 750 and 739 and 606 and 654 and 748, the “FlexMap NM_021103 LUA#41” value (Experiment 2, Tretinoin) was 2724 and 2581.5 and 2331.5 and 2558 and 2559 and 793 and 1990 and 2996.5 and the “FlexMap NM_021203 LUA#80” value (Experiment 2, Tretinoin) was 657.5 and 657 and 757.5 and 703 and 701.5 and 650 and 660 and 741. For the same molecule, the “FlexMap NM_021974 LUA#64” value (Experiment 2, Tretinoin) was 1286.5 and 1160 and 1272 and 1368.5 and 1315 and 1193.5 and 1269 and 1365, the “FlexMap NM_024045 LUA#65” value (Experiment 2, Tretinoin) was 178 and 149 and 163.5 and 164.5 and 175.5 and 158 and 157 and 182 and the “FlexMap TFRC LUA#92” value (Experiment 2, Tretinoin) was 346 and 400.5 and 413 and 375 and 381 and 358 and 345.5 and 382. The “FlexMap signal, transcript NM_000070 (LUA#2)” value [1] was 437.5 and 358 and 444 (2×) and 393 (2×) and 419 and 422, the “FlexMap signal, transcript NM_000153 (LUA#10)” value [1] was 487 and 484 and 539 and 511 and 505 and 473 and 501 and 542 and the “FlexMap signal, transcript NM_000632 (LUA#12)” value [1] was 369.5 and 476 and 491.5 and 406 and 400 and 360.5 and 374 and 395.
